Measurements taken from patent publication US20230107941A1, “HEPATITIS B CAPSID ASSEMBLY MODULATORS” (Venatorx Pharmaceuticals, Inc., priority 2019, published 2023).

Assays:
[1] = tested on: HBV; test: In vitro antiviral assay: anti-HBV replication in HepAD38 cells (extracellular HBV DNA by QPCR); assay type: cell-based, hepatitis B virus (genotype D, serotype ayw); conditions: Hepatitis B virus, HePAD38, 168 h, 7 days incubation, extracellular HBV DNA by QPCR, read-out: Anti-HBV EC50
In short: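 HepG2-derived HepAD38 cells (HBV genotype D, ayw, tet-repressible CMV) induced by tetracycline withdrawal, treated 7 days at 37 °C with compound (1 μM to 10 pM, 10-fold steps). Supernatant HBV DNA quantified by QPCR against standard curve, percent of DMSO control; EC50 by 4-parameter fit; entecavir positive control.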

[2] = In vitro cytotoxicity assay (MTT cell viability) in HepG2 cells; assay type: cell-based, human; conditions: human
In short: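 CC50 was derived by 4-parameter fit of viability relative to vehicle controls, measured as MTT formazan absorbance at 492 nm after 3–4 h of reagent and DMSO solubilization. Before that, HepG2 cells seeded overnight at 20,000/well were incubated 7 days at 37°C with compound from 30 μM down to 1.0 nM in half-log steps.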

Row | SMILES | EC50 [1] [µM] | CC50 at 7 days [2] [µM]
1 | COC(=O)c1cc(NC(=O)c2c(C)c(C(=O)C(=O)NC(C)(C)C)n(C)c2C)ccc1F [Example 55, methyl 5-(5-(2-(tert-butylamino)-2-oxoacetyl)-1,2,4-trimethyl-1H-pyrrole-3-carboxamido)-2-fluorobenzoate] | > 1 | > 30
2 | Cc1c(C(=O)NCc2noc(C(F)(F)F)n2)c(C)n(C)c1C(=O)C(=O)NC(C)(C)C [Example 58, 5-(2-(tert-butylamino)-2-oxoacetyl)-1,2,4-trimethyl-N-((5-(trifluoromethyl)-1,2,4-oxadiazol-3-yl)methyl)-1H-pyrrole-3-carboxamide] | > 1 | > 30
3 | CC(=O)N1CC[C@@H](NC(=O)C(=O)c2c(C)c(C(=O)Nc3ccc(F)c(C)c3)c(C)n2C)[C@H](O)C1 [Example 167, 5-(2-(((3R,4R)-1-acetyl-3-hydroxypiperidin-4-yl)amino)-2-oxoacetyl)-N-(4-fluoro-3-methylphenyl)-1,2,4-trimethyl-1H-pyrrole-3-carboxamide] | 0.5 to 1 | > 30
4 | Cc1cc(NC(=O)c2c(C)c(C(=O)C(=O)N[C@H]3CC[C@H](S(C)(=O)=O)CC3)n(C)c2C)ccc1F [Example 8, N-(4-fluoro-3-methylphenyl)-1,2,4-trimethyl-5-(2-(((1r,4r)-4-(methylsulfonyl)cyclohexyl)amino)-2-oxoacetyl)-1H-pyrrole-3-carboxamide] | < 0.05 | 5 to 30
5 | Cc1cc(NC(=O)c2c(C)c(C(=O)C(=O)N[C@]3(C)CC[C@H](O)CC3)n(C)c2-c2cccnc2)ccc1F [Example 152, N-(4-fluoro-3-methylphenyl)-5-(2-(((1s,4s)-4-hydroxy-1-methylcyclohexyl)amino)-2-oxoacetyl)-1,4-dimethyl-2-(pyridin-3-yl)-1H-pyrrole-3-carboxamide] | > 1 | > 30
6 | Cc1c(C(=O)Nc2cc(Cl)cc(Cl)c2)c(C)n(C)c1C(=O)C(=O)N[C@H](C)C(F)(F)F [Example 79, (R)-N-(3,5-dichlorophenyl)-1,2,4-trimethyl-5-(2-oxo-2-((1,1,1-trifluoropropan-2-yl)amino)acetyl)-1H-pyrrole-3-carboxamide] | < 0.05 | 5 to 30
7 | Cc1cc(F)cc(NC(=O)c2c(C)c(C(=O)C(=O)NC(C)(C)C)n(C)c2C)c1 [Example 67, 5-(2-(tert-butylamino)-2-oxoacetyl)-N-(3-fluoro-5-methylphenyl)-1,2,4-trimethyl-1H-pyrrole-3-carboxamide] | < 0.05 | > 30
8 | CC[C@]1(NC(=O)C(=O)c2c(C)c(C(=O)Nc3ccc(F)c(C)c3)c(C)n2C)CC[C@H](O)CC1 [Example 4, 5-(2-(((1r,4r)-1-ethyl-4-hydroxycyclohexyl)amino)-2-oxoacetyl)-N-(4-fluoro-3-methylphenyl)-1,2,4-trimethyl-1H-pyrrole-3-carboxamide] | < 0.05 | > 30
9 | Cc1cc(NC(=O)c2c(C)c(C(=O)C(=O)N[C@H]3CC[C@@H](S(C)(=O)=O)CC3)n(C)c2C2CCCCC2)ccc1F [Example 117, 2-cyclohexyl-N-(4-fluoro-3-methylphenyl)-1,4-dimethyl-5-(2-(((1s,4s)-4-(methylsulfonyl)cyclohexyl)amino)-2-oxoacetyl)-1H-pyrrole-3-carboxamide] | > 1 | > 30
10 | Cc1cc(NC(=O)c2c(C)c(C(=O)C(=O)N[C@@H]3CC[C@@H](O)CC3(C)C)n(C)c2C)ccc1F (single isomer, unassigned) [Example 143] | < 0.05 | > 30
11 | Cc1cc(NC(=O)c2c(C)c(C(=O)C(=O)N[C@]3(C)C[C@H](O)C3)n(C)c2-c2ccccn2)ccc1F [Example 155, N-(4-fluoro-3-methylphenyl)-5-(2-(((1s,3s)-3-hydroxy-1-methylcyclobutyl)amino)-2-oxoacetyl)-1,4-dimethyl-2-(pyridin-2-yl)-1H-pyrrole-3-carboxamide] | > 1 | > 30
12 | Cc1cc(NC(=O)c2c(C)c(C(=O)C(=O)N[C@]3(C4CC4)CC[C@H](O)CC3)n(C)c2C)ccc1F [Example 6, 5-(2-(((1s,4s)-1-cyclopropyl-4-hydroxycyclohexyl)amino)-2-oxoacetyl)-N-(4-fluoro-3-methylphenyl)-1,2,4-trimethyl-1H-pyrrole-3-carboxamide] | < 0.05 | > 30
13 | Cc1cc(NC(=O)c2c(C)c(C(=O)C(=O)N[C@H]3CC[C@@H](O)CC3)n(C)c2C2CCCC2)ccc1F [Example 134, 2-cyclopentyl-N-(4-fluoro-3-methylphenyl)-5-(2-(((1s,4s)-4-hydroxycyclohexyl)amino)-2-oxoacetyl)-1,4-dimethyl-1H-pyrrole-3-carboxamide] | 0.05 to 0.499 | > 30
14 | Cc1cc(NC(=O)c2c(C)c(C(=O)C(=O)N[C@@H]3CCCN(C(=O)Nc4ccc(F)c(F)c4)C3)n(C)c2C)ccc1F [Example 35, (R)-N-(3,4-difluorophenyl)-3-(2-(4-((4-fluoro-3-methylphenyl)carbamoyl)-1,3,5-trimethyl-1H-pyrrol-2-yl)-2-oxoacetamido)piperidine-1-carboxamide] | 0.5 to 1 | 5 to 30
15 | Cc1cc(NC(=O)c2c(C)c(C(=O)C(=O)N[C@]3(C)CC[C@H](O)CC3)n(C)c2-c2ccncc2)ccc1F [Example 162, N-(4-fluoro-3-methylphenyl)-5-(2-(((1s,4s)-4-hydroxy-1-methylcyclohexyl)amino)-2-oxoacetyl)-1,4-dimethyl-2-(pyridin-4-yl)-1H-pyrrole-3-carboxamide] | > 1 | > 30
16 | Cc1cc(NC(=O)c2c(C)c(C(=O)C(=O)Nc3ccncc3N3CCOCC3)n(C)c2C)ccc1F [Example 54, N-(4-fluoro-3-methylphenyl)-1,2,4-trimethyl-5-(2-((3-morpholinopyridin-4-yl)amino)-2-oxoacetyl)-1H-pyrrole-3-carboxamide] | 0.5 to 1 | > 30
17 | CCc1c(C(=O)Nc2ccc(F)c(C)c2)c(C)n(C)c1C(=O)C(=O)N[C@H]1CC[C@@H](O)CC1 [Example 86, 4-ethyl-N-(4-fluoro-3-methylphenyl)-5-(2-(((1s,4s)-4-hydroxycyclohexyl)amino)-2-oxoacetyl)-1,2-dimethyl-1H-pyrrole-3-carboxamide] | < 0.05 | > 30
18 | Cc1c(C(=O)Nc2cc(Cl)nc(Cl)c2)c(C)n(C)c1C(=O)C(=O)N[C@]1(C)CC[C@H](O)CC1 [Example 11, N-(2,6-dichloropyridin-4-yl)-5-(2-(((1s,4s)-4-hydroxy-1-methylcyclohexyl)amino)-2-oxoacetyl)-1,2,4-trimethyl-1H-pyrrole-3-carboxamide] | < 0.05 | > 30
19 | CCC1(NC(=O)C(=O)c2c(C)c(C(=O)Nc3ccc(F)c(C)c3)c(C)n2C)CCN(c2cnccn2)CC1 [Example 50, 5-(2-((4-ethyl-1-(pyrazin-2-yl)piperidin-4-yl)amino)-2-oxoacetyl)-N-(4-fluoro-3-methylphenyl)-1,2,4-trimethyl-1H-pyrrole-3-carboxamide] | < 0.05 | > 30
20 | Cc1cc(NC(=O)c2c(C)c(C(=O)C(=O)N[C@H]3CC[C@@H](S(C)(=O)=O)CC3)n(C)c2C)ccc1F [Example 1, N-(4-fluoro-3-methylphenyl)-1,2,4-trimethyl-5-(2-(((1s,4s)-4-(methylsulfonyl)cyclohexyl)amino)-2-oxoacetyl)-1H-pyrrole-3-carboxamide] | < 0.05 | > 30
